Data on 4 molecules can be found in PMC11284600, “Many human pharmaceuticals are weak inhibitors of the cytochrome P450 system in rainbow trout (Oncorhynchus mykiss) liver S9 fractions” (Frontiers in Toxicology, 2024).

The test system of one series is CYP1A-like EROD activity. The series is described as follows: in vitro. The note with it: both, Christophersen, Bornhoeved, rainbow trout (Oncorhynchus mykiss). The procedure:
(§1) Commercially available rainbow trout (O. mykiss) liver S9 fractions were used as the enzyme source for the in vitro P450 inhibition assays (RTL-S9, total protein concentration 20 mg/mL, Primacyt Cell Culture Technology GmbH).
(§2) The inhibitory impacts of the test substances toward the rainbow trout liver P450 system in vitro were assessed based on EROD and BFCOD as the marker reactions for CYP1A- and CYP3A-like isoenzyme activities, respectively. […] In this study, the EROD (CYP1A) and BFCOD (CYP3A) activities were determined using 0.5 mg/mL RT-S9 (total protein) concentration and 1 or 2 mM NADPH, respectively. […] All incubations were performed in duplicate in a total volume of 100 µL of potassium phosphate buffer (0.1 M, pH 7.8), at 11°C ± 1°C on a thermostated orbital shaker (LLG Labware). The reactions were terminated by the addition of 37.5 μL of the quenching solution (0.5 M Trizma base/acetonitrile 20:80, v/v). […] The quantitation of the metabolites (resorufin or HFC) was based on linear regression of the respective standards prepared in the potassium phosphate buffer. Negative control incubations were performed separately without the marker substrate, without cofactors, and without RT-S9 to ensure that the detected fluorescence signals arise from the metabolic conversion of the marker substrates (ER or BFC) into their respective metabolites (resorufin or HFC, respectively).
(§3) In this study, the preincubation was performed using three different protocols A-C (Table 2). In the first protocol, the test substance (each separately at six different concentrations between 0.01 and 500 µM) and RT-S9 were preincubated without any cofactors, and the marker reaction was initiated by the addition of the marker substrate (ER or BFC) and NADPH (Protocol A). This enabled the determination of the inhibitory impact of the parent form of the test substance on the respective marker activity. In the second protocol, the test substance and RT-S9 were preincubated together with NADPH, and the marker reaction was initiated by the addition of the marker substrate (Protocol B). In this manner, the test substance could undergo P450 metabolism already during the preincubation step, which may reduce its concentration and thus the inhibitory impact toward the marker reactions, or result in the formation of reactive or inhibitory metabolites, which typically increases the inhibitory impact compared with the parent form (Protocol A). […] In this manner, the test substance could undergo both P450 and phase II metabolism already during the preincubation step, which may likewise reduce its concentration and inhibitory impact toward the marker reactions, and even help eliminate the possible reactive metabolites via glutathione conjugation. […] Additionally, positive control incubations of the marker substrates (ER or BFC) without the test substance (zero inhibitor concentration) were included in each series to determine the basal EROD or BFCOD activity in RT-S9.
(§4) The residual solvent concentration was kept constant at all inhibitor concentrations, including zero, to eliminate its impact on the IC50 concentrations derived from the empirical data. The IC50 shifts for Protocols B and C were calculated according to Eq. 2: IC50 shift=IC50,Protocol A/IC50,Protocol B or Protocol C (2)
(§5) In this manner, the impact of the test substance’s own metabolism (during the preincubation step) on the inhibitory impact could be evaluated.

Series [1] deals with CYP1A-like ethoxyresorufin O-deethylase (EROD) activity in rainbow trout liver S9 fractions. The experiment in a line: in vitro. The procedure: as §1, §2, §3, §4, §5
The subject of series [2] is CYP1A-like ethoxyresorufin O-deethylase (EROD) activity. The experiment in a line: in vitro. The conditions noted are these: both, Christophersen, Bornhoeved, rainbow trout (Oncorhynchus mykiss); for inhibition at 10 min: pH 7.8. The procedure: as §1, §2, §3, §4, §5
The target of series [3] is T1, CYP3A-like 7-benzyloxy-4-trifluoromethylcoumarin O-debenzylase (BFCOD) activity in rainbow trout liver S9 fractions (Oncorhynchus mykiss, UniProt O42563).
T1 sequence (O42563 1-518): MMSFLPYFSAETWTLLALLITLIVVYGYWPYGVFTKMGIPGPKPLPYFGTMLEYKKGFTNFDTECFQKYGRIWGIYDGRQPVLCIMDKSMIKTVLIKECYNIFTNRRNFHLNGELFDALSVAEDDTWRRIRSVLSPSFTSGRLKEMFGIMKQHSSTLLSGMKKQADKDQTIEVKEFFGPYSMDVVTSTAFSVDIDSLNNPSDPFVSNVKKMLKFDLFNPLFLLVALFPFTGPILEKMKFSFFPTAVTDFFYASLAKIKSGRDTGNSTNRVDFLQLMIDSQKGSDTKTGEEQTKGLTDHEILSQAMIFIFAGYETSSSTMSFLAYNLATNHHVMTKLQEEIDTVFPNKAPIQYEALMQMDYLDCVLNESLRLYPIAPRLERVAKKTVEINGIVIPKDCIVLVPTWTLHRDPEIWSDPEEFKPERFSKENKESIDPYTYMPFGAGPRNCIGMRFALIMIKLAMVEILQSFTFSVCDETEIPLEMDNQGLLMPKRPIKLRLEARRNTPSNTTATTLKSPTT
The experiment in a line: BFCOD inhibition in RT-S9 (IC50 shift assay). The note with it: within the tested concentration range. The procedure:
as §1, §2, §3, §4, §5

Series [4] deals with T2, CYP3A-like BFCOD activity (Oncorhynchus mykiss, UniProt O42563).
T2 sequence (O42563 1-518): T1 sequence (O42563 1-518)
The experiment in a line: BFCOD inhibition in RT-S9 (IC50 shift assay). The conditions noted are these: both, Christophersen, Bornhoeved, rainbow trout (Oncorhynchus mykiss). The procedure:
as §1, §2, §3, §4, §5

Series [5] in a line: Unbound fraction in RT-S9 by rapid equilibrium dialysis. Format: in vitro ADME, rainbow trout (Oncorhynchus mykiss). The conditions noted are these: rainbow trout liver S9 fractions (RT-S9), 10 µM test substance, 1 mg/mL RT-S9, pH 7.8, 11°C, n = 3, read-out: Unbound fraction (fU,RT-S9). The procedure:
The unbound (free) fractions of the test substances in RT-S9 (fU,RT-S9) were determined using rapid equilibrium dialysis assay (RED, Thermo Fisher Scientific), which exploits two-compartment inserts separated by a dialysis membrane with a molecular weight cut-off of 8,000 Da. In the RED assay, each test pharmaceutical (10 μM) was incubated in triplicate with RT-S9 (1 mg/mL) in 50 mM potassium phosphate buffer (pH 7.8) in a total volume of 300 µL on one side of the membrane (protein-containing chamber), and 350 μL of the plain phosphate buffer on the other side (protein-free chamber). To reach equilibrium, the samples were incubated on an orbital shaker (C25KC Incubator shaker, New Brunswick Scientific, 120 rpm) at 11°C for 4 h. Next, 50 µL aliquots were collected from both chambers separately and diluted by adding 50 µL of the plain buffer (to the protein-containing sample) or 50 μL of 1 mg/mL RT-S9 in the buffer (to the protein-free sample). Finally, the RT-S9 protein was precipitated by the addition of acetonitrile (+200 μL) to both samples separately, followed by incubation on ice for 30 min and centrifugation (16100 g, 15 min). The test substance concentrations in the supernatants of both samples were determined using liquid chromatography. The instrumentation and the analytical methods used for chromatographic analyses are described in detail in the Supplementary Table S2. The unbound fractions of the test substances in RT-S9 (fU,RT-S9) were calculated according to Eq. 3: fU,RT−S9=1− PC−PF/PC (3) where [PC] and [PF] are the test substance concentrations in the samples collected from protein-containing and protein-free chambers, respectively. To account for the test substance’s binding to the RT-S9, the nominal IC50 values were corrected for unbound fraction (fU,RT-S9) according to Eq. 4: Unbound IC50=Nominal IC50×fU,RT−S9 (4)
In general terms: In equilibrium dialysis free small molecules cross a membrane that holds back macromolecules.

Details of series [6]: method as in Chemaxon. The conditions noted are these: pH 7.8; (e) empirical; ref Chemaxon; cited from earlier work.
On the set-up of series [7]: method as in PubChem. The note with it: (e) empirical; ref PubChem; cited from earlier work.
A further series deals with Human CYP1A. The conditions noted are these: ref Drugbank unless otherwise stated (Dragovic et al., 2013; Conard and Ober 1984; Niwa et al., 2005); cited from earlier work.
Setting [8] is: pH 7.8, EROD inhibition in RT-S9, Nominal IC50.
Setting [9] is: pH 7.8, EROD inhibition in RT-S9, Unbound IC50.

The structures appear in SMILES notation. Structures can show the parent of a compound that is named as a salt.

In the case of `CNCC[C@@H](Oc1ccccc1C)c1ccccc1` [Atomoxetine, atomoxetine hydrochloride], the IC50 shift at 10 min with CYP1A-like EROD activity (s9, pH 7.8, EROD inhibition in RT-S9, IC50 shift (A/B)) is 0.9 ± 0.1; in the series with CYP1A-like EROD activity (s9, pH 7.8, EROD inhibition in RT-S9, IC50 shift (A/C)), 1.1. Also, in series [1], the “EROD inhibition in RT-S9 (in words)” value is “inhibited selectively only EROD activity”. In addition, the inhibition at 10 min in [2] was not above 50%. The half-inhibitory concentration (IC50) at 10 min was more than 100 µM in series [2] (setting [8]) and 20 ± 4 µM in series [2] (setting [9]). Besides, the “BFCOD inhibition in RT-S9 (in words)” value in [3] was “did not significantly inhibit”. For the same molecule, the half-inhibitory concentration (IC50) at 20 min in series [4] (s9, pH 7.8) is more than 25 µM. Also, the free fraction (fraction unbound) at 4 h, 10 µM in series [5] came out at 0.2 ± 0.03. Moreover, in series [6], the Water solubility is on record as 27.8 (e) mg/mL.
Take `CN1CCN(C2=Nc3cc(Cl)ccc3Nc3ccccc32)CC1` [Clozapine, clozapine]: the inhibition at 10 min in series [2] is more than 50%. Also, the IC50 at 10 min in series [2] (setting [8]) is 46 ± 9 µM; in series [2] (setting [9]), approximately 10 µM. The inhibition at 20 min in [4] (s9, pH 7.8) was not above 50%. The IC50 at 20 min in series [4] (s9, pH 7.8, BFCOD inhibition in RT-S9, Nominal IC50, Protocol A: 30 min preincubation without cofactors, extrapolated) was more than 100 µM; in series [4] (s9, pH 7.8, BFCOD inhibition in RT-S9, Nominal IC50, Protocol B: 30 min preincubation w/NADPH (2 mM)) it was more than 100 µM; in series [4] (s9, pH 7.8, BFCOD inhibition in RT-S9, Nominal IC50, Protocol C: 30 min preincubation w/all cofactors (NADPH, UDPGA, PAPS, glutathione)) it was more than 100 µM; in series [4] (s9, pH 7.8, BFCOD inhibition in RT-S9, Unbound IC50, nominal IC50 of Protocol A × fU,RT-S9 (Eq. 4)) it was 10 to 30 µM. Moreover, the unbound share (fraction unbound) at 4 h, 10 µM in [5] came to 0.21 ± 0.05. The LogKOW in series [7] is listed as 3.23 (e). Moreover, in the series with Human CYP1A, the “Human CYP1A interactions: substrate status” value (from here on “Human CYP1A interactions”) is “Substrate”.
On to `O=C(NCC1CCCCN1)c1cc(OCC(F)(F)F)ccc1OCC(F)(F)F` (centres unmarked) [Flecainide, flecainide acetate], for which, in series [1], the “EROD inhibition in RT-S9 (in words)” value is recorded as “inhibited selectively only EROD activity” and half-maximal inhibition (IC50) required 82 ± 14 µM. The same molecule returned an inhibition at 10 min in series [2] not above 50%. The same molecule yielded a concentration for half-maximal inhibition (IC50) at 10 min in series [2] (setting [8]) of more than 100 µM. The “BFCOD inhibition in RT-S9 (in words)” value in [3] is recorded as “did not significantly inhibit”. Also, in series [4] (s9, pH 7.8), the IC50 at 20 min is more than 25 µM. Further, the free fraction (fraction unbound) at 4 h, 10 µM in series [5] came out at 0.36 ± 0.03. The “Human CYP1A interactions” value in the series with Human CYP1A is “Substrate”.
Consider `CN(C)CCc1c[nH]c2ccc(C[C@H]3COC(=O)N3)cc12` [Zolmitriptan, zolmitriptan], for which the “BFCOD inhibition in RT-S9 (in words)” value in series [3] was “did not significantly inhibit”. The LogKOW in series [7] is given as 1.792 (e). The “Human CYP1A interactions” value in the series on Human CYP1A is reported as “Substrate”.

Broadly, the inhibition is the drop in the measured response relative to a control, in per cent. The term IC50 denotes the midpoint of a concentration-inhibition curve. The term fraction unbound denotes free concentration divided by total concentration.
